Laboratory results from patent publication US12448358B2, “Inhibitors of protein arginine deiminase 1 and methods of preparation and use thereof” (University of Massachusetts, priority 2019, dated 2025).

How the values were obtained:
PAD1 [1] = biological target: T1, PAD1 (Homo sapiens, UniProt Q9ULC6); experiment: Limit of detection of PAD1 labelling in HEK293TPAD1 cells by probe; assay type: cell-based; settings: 5 μM probe, 3 h; calculated from PAD1 content 0.06% of the total protein
T1 construct: made in house
T1 sequence (Q9ULC6 1-663): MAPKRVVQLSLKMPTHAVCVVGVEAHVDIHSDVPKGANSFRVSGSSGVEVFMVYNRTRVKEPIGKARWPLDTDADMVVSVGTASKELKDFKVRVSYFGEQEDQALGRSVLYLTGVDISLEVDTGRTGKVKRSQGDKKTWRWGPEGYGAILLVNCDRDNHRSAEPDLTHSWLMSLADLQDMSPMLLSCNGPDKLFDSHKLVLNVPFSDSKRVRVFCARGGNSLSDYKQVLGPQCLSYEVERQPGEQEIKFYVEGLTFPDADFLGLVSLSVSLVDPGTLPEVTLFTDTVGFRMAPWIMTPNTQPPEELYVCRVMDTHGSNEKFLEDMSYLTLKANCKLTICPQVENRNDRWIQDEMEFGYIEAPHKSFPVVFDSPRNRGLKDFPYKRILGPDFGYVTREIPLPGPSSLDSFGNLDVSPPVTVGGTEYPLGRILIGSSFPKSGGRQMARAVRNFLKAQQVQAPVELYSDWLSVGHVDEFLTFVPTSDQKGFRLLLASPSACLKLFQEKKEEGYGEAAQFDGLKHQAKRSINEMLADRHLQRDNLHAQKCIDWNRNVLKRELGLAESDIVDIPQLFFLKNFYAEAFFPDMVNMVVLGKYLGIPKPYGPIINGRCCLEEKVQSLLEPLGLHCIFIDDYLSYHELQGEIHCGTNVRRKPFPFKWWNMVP
Experimental: FIG. 16. (A) Time-dependent labelling of PAD1 in HEK293TPAD1 cells by 21. HEK293TPAD1 cells were treated with 21 (5 μM) in serum-free DMEM for various times. After the treatment, cells were harvested and flash-frozen in liquid nitrogen. Cell lysates were treated with TAMRA-N3, TCEP, TBTA and CuSO4 for 2 h at room temperature. Time-dependent labelling of PAD1 by 21 was recorded on a Typhoon scanner. (B) Limit of detection of PAD1 in HEK293TPAD1 cells by 21. For this study, cells were treated with 5 μM of 21 in serum-free DMEM for 3 h and decreasing amounts (indicated by total protein content) of lysates were clicked with TAMRA-N3 in the presence of TCEP, TBTA and freshly prepared CuSO4. […] F stands for fluorograph.
Dose-dependent Labelling of PAD1 in HEK293TPAD1 cells with 21. HEK293TPAD1 cells were plated in 6-well plates at a density of ˜1×10^6 cells/well and were allowed to grow in DMEM (supplemented with 10% heat-inactivated fetal bovine serum, 100 units/mL penicillin, 100 μg/mL streptomycin and 0.15 mg/mL hygromycin B) for 12 h. […] Soluble proteins in the lysate were quantified by DC-assay (Bio-Rad). […] Protein bands were visualized by recording in-gel fluorescence using a typhoon scanner (approximate excitation/emission maxima ˜546/579, respectively). […]

PAD1 [2] = biological target: T1, PAD1; experiment: Limit of detection for in vitro labelling of recombinant PAD1 by probe; assay type: binding; settings: 10 μM probe, conjugated with TAMRA-N3 using CuAAC
Experimental: Dose-dependent in vitro Labelling of Recombinant PADs with 21 and 22. A PAD (1.4 μM) was added to a prewarmed (10 min at 37° C.) reaction mixture (25 mM TRIS pH 7.4, 10 mM NaCl, and 5 mM CaCl2) containing various concentrations of 21 or 22 (or equal volume of DMSO for control). The mixture was incubated at 37° C. for 15 min. Then TAMRA-N3 (50 μM), TCEP (1 mM), TBTA (0.3 mM) and freshly prepared copper (II) sulphate (1 mM) were sequentially added to the reaction mixture and the tubes were gently tumbled at room temperature for 2 h. Then the reactions were quenched with 5×SDS-PAGE loading dye, heated at 95° C. for 15 min and loaded onto 4-15% gradient SDS-PAGE gel. Protein bands were visualized by recording in-gel fluorescence using a typhoon scanner (approximate excitation/emission maxima ˜546/579, respectively). All the experiments were performed at least in duplicate.
Limit of Detection for in vitro Labelling of Recombinant PADs with 21 and 22. Various concentrations of PAD were added to prewarmed (10 min at 37° C.) reaction mixtures (25 mM TRIS pH 7.4, 10 mM NaCl, 5 mM CaCl2) containing 10 μM of 21 or 22. […] Protein bands were visualized by recording in-gel fluorescence using a typhoon scanner (approximate excitation/emission maxima ˜546/579, respectively). […]

LOD of PAD1 in HEK293TPAD1 cells (PAD1 [1]): 72 pmol
limit of detection (LOD) of recombinant PAD1 (PAD1 [2]): 4.3 pmol
SMILES: C#Cc1c(I)cc(C(=O)N[C@@H](CCCNC(=N)CF)c2nc3ccccc3[nH]2)c(O)c1I [Compound 21]
